Assay results from ChEMBL document CHEMBL1255467, “Comparative in vitro antimicrobial activities of torezolid (TR-700), the active moiety of a new oxazolidinone, torezolid phosphate (TR-701), determination of tentative disk diffusion interpretive criteria, and quality control ranges” (2010).
≈ marks a conversion by molar mass, not a printed value.

Columns and labels:
Staphylococcus aureus [1] = test: Antimicrobial activity against linezolid-resistant Staphylococcus aureus by broth dilution method; assay type: functional
Staphylococcus aureus [2] = test: Antimicrobial activity against methicillin-resistant Staphylococcus aureus by broth dilution method; assay type: functional
Staphylococcus aureus [3] = test: Antimicrobial activity against methicillin-susceptible Staphylococcus aureus by broth dilution method; assay type: functional
Staphylococcus aureus [4] = test: Antimicrobial activity against Staphylococcus aureus by broth dilution method; assay type: functional
Staphylococcus sp. [5] = test: Antimicrobial activity against Staphylococcus sp. by broth dilution method; assay type: functional
Staphylococcus sp. [6] = test: Antimicrobial activity against methicillin-resistant coagulase-negative Staphylococcus by broth dilution method; assay type: functional
Staphylococcus aureus [7] = test: Antimicrobial activity against vancomycin-nonsusceptible Staphylococcus aureus by broth dilution method; assay type: functional
Staphylococcus sp. [8] = test: Antimicrobial activity against methicillin-susceptible coagulase-negative Staphylococcus by broth dilution method; assay type: functional
Enterococcus sp. = test: Antimicrobial activity against Enterococcus by broth dilution method; assay type: functional
Enterococcus faecalis [9] = test: Antimicrobial activity against vancomycin-resistant Enterococcus faecalis by broth dilution method; assay type: functional
Enterococcus faecalis [10] = test: Antimicrobial activity against vancomycin-susceptible Enterococcus faecalis by broth dilution method; assay type: functional
Enterococcus faecium [11] = test: Antimicrobial activity against vancomycin-resistant Enterococcus faecium by broth dilution method; assay type: functional
Enterococcus faecium [12] = test: Antimicrobial activity against vancomycin-susceptible Enterococcus faecium by broth dilution method; assay type: functional
Streptococcus pneumoniae [13] = test: Antimicrobial activity against Streptococcus pneumoniae by broth dilution method; assay type: functional
Streptococcus pneumoniae [14] = test: Antimicrobial activity against penicillin-susceptible Streptococcus pneumoniae by broth dilution method; assay type: functional
Streptococcus pneumoniae [15] = test: Antimicrobial activity against penicillin-intermediate Streptococcus pneumoniae by broth dilution method; assay type: functional
Streptococcus pneumoniae [16] = test: Antimicrobial activity against penicillin-resistant Streptococcus pneumoniae by broth dilution method; assay type: functional
Streptococcus viridans = test: Antimicrobial activity against Streptococcus viridans by broth dilution method; assay type: functional
Corynebacterium jeikeium = test: Antimicrobial activity against Corynebacterium jeikeium by broth dilution method; assay type: functional
Listeria monocytogenes = test: Antimicrobial activity against Listeria monocytogenes by broth dilution method; assay type: functional
Moraxella catarrhalis = test: Antimicrobial activity against Moraxella catarrhalis by broth dilution method; assay type: functional
Haemophilus influenzae [17] = test: Antimicrobial activity against Haemophilus influenzae by broth dilution method; assay type: functional
Haemophilus influenzae [18] = test: Antimicrobial activity against beta-lactamase negative Haemophilus influenzae by broth dilution method; assay type: functional
Haemophilus influenzae [19] = test: Antimicrobial activity against beta-lactamase positive Haemophilus influenzae by broth dilution method; assay type: functional
Haemophilus influenzae [20] = test: Antimicrobial activity against ampicillin-nonsusceptible beta-lactamase negative Haemophilus influenzae by broth dilution method; assay type: functional
Streptococcus sp = test: Antimicrobial activity against streptococcal sp. by broth dilution method

## Cn1nnc(-c2ccc(-c3ccc(N4C[C@H](CO)OC4=O)cc3F)cn2)n1 [TEDIZOLID]
Staphylococcus aureus [1]
  MBC: > 16 µg/mL
  MIC50: 4 µg/mL (≈ 10.8 µM)
  MIC90: 8 µg/mL (≈ 21.6 µM)
Staphylococcus aureus [2]
  MBC50: 2 µg/mL (≈ 5.4 µM)
Staphylococcus aureus [2]; Staphylococcus aureus
  MIC50: 0.5 µg/mL (≈ 1.35 µM)
  MIC90: 1 µg/mL (≈ 2.7 µM)
Staphylococcus aureus [3]
  MBC50: 16 µg/mL (≈ 43.2 µM)
  MBC90: 32 µg/mL (≈ 86.4 µM)
Staphylococcus aureus [3]; Staphylococcus aureus
  MBC: 1 µg/mL (≈ 2.7 µM)
  MIC: 0.25 µg/mL (≈ 0.675 µM)
  MIC50: 0.25 µg/mL (≈ 0.675 µM)
  MIC90: 0.5 µg/mL (≈ 1.35 µM)
Staphylococcus aureus [4]
  MBC50: 4 µg/mL (≈ 10.8 µM)
  MBC90: 16 µg/mL (≈ 43.2 µM)
Staphylococcus aureus [4]; Staphylococcus aureus
  MBC: > 0.5 µg/mL
  MIC50: 0.5 µg/mL (≈ 1.35 µM)
  MIC90: 0.5 µg/mL (≈ 1.35 µM)
Staphylococcus sp. [5]
  MBC50: 8 µg/mL (≈ 21.6 µM)
  MBC90: 32 µg/mL (≈ 86.4 µM)
Staphylococcus sp. [5]; Staphylococcus sp.
  MBC: > 0.5 µg/mL
  MIC50: 0.25 µg/mL (≈ 0.675 µM)
  MIC90: 0.5 µg/mL (≈ 1.35 µM)
Staphylococcus sp. [6]
  MIC50: 0.25 µg/mL (≈ 0.675 µM)
  MIC90: 0.5 µg/mL (≈ 1.35 µM)
Staphylococcus aureus [7]
  MBC50: 0.5 µg/mL (≈ 1.35 µM)
  MBC90: 1 µg/mL (≈ 2.7 µM)
Staphylococcus aureus [7]; Staphylococcus aureus
  MBC: 0.5 µg/mL (≈ 1.35 µM)
  MIC50: 0.25 µg/mL (≈ 0.675 µM)
  MIC90: 1 µg/mL (≈ 2.7 µM)
Staphylococcus sp. [8]
  MBC50: 16 µg/mL (≈ 43.2 µM)
  MBC90: 32 µg/mL (≈ 86.4 µM)
Staphylococcus sp. [8]; Staphylococcus sp.
  MBC: > 2 µg/mL
  MIC50: 0.25 µg/mL (≈ 0.675 µM)
  MIC90: 0.5 µg/mL (≈ 1.35 µM)
Enterococcus sp.
  MBC50: 32 µg/mL (≈ 86.4 µM)
  MBC90: 32 µg/mL (≈ 86.4 µM)
Enterococcus sp.; Enterococcus sp.
  MBC: > 1 µg/mL
  MIC50: 0.5 µg/mL (≈ 1.35 µM)
  MIC90: 0.5 µg/mL (≈ 1.35 µM)
Enterococcus faecalis [9]
  MBC: > 16 µg/mL
  MIC50: 0.5 µg/mL (≈ 1.35 µM)
  MIC90: 0.5 µg/mL (≈ 1.35 µM)
Enterococcus faecalis [10]
  MBC50: 32 µg/mL (≈ 86.4 µM)
  MBC90: 32 µg/mL (≈ 86.4 µM)
Enterococcus faecalis [10]; Enterococcus faecalis
  MBC: 16 µg/mL (≈ 43.2 µM)
  MIC50: 0.5 µg/mL (≈ 1.35 µM)
  MIC90: 0.5 µg/mL (≈ 1.35 µM)
Enterococcus faecium [11]
  MBC: 1 µg/mL (≈ 2.7 µM)
  MIC50: 0.5 µg/mL (≈ 1.35 µM)
  MIC90: 0.5 µg/mL (≈ 1.35 µM)
Enterococcus faecium [12]
  MBC50: 32 µg/mL (≈ 86.4 µM)
  MBC90: 32 µg/mL (≈ 86.4 µM)
Enterococcus faecium [12]; Enterococcus faecium
  MBC: 16 µg/mL (≈ 43.2 µM)
  MIC50: 0.5 µg/mL (≈ 1.35 µM)
  MIC90: 0.5 µg/mL (≈ 1.35 µM)
Streptococcus pneumoniae [13]
  MBC50: 1 µg/mL (≈ 2.7 µM)
  MBC90: 2 µg/mL (≈ 5.4 µM)
Streptococcus pneumoniae [13]; Streptococcus pneumoniae
  MBC: 0.5 µg/mL (≈ 1.35 µM)
  MIC50: 0.25 µg/mL (≈ 0.675 µM)
  MIC90: 0.25 µg/mL (≈ 0.675 µM)
Streptococcus pneumoniae [14]
  MBC50: 1 µg/mL (≈ 2.7 µM)
  MBC90: 4 µg/mL (≈ 10.8 µM)
Streptococcus pneumoniae [14]; Streptococcus pneumoniae
  MBC: 0.5 µg/mL (≈ 1.35 µM)
  MIC50: 0.25 µg/mL (≈ 0.675 µM)
  MIC90: 0.25 µg/mL (≈ 0.675 µM)
Streptococcus pneumoniae [15]
  MBC50: 1 µg/mL (≈ 2.7 µM)
  MBC90: 1 µg/mL (≈ 2.7 µM)
Streptococcus pneumoniae [15]; Streptococcus pneumoniae
  MBC: 0.5 µg/mL (≈ 1.35 µM)
  MIC50: 0.25 µg/mL (≈ 0.675 µM)
  MIC90: 0.5 µg/mL (≈ 1.35 µM)
Streptococcus pneumoniae [16]
  MBC: 1 µg/mL (≈ 2.7 µM)
  MIC50: 0.25 µg/mL (≈ 0.675 µM)
  MIC90: 0.25 µg/mL (≈ 0.675 µM)
Streptococcus viridans
  MIC50: 0.25 µg/mL (≈ 0.675 µM)
  MIC90: 0.25 µg/mL (≈ 0.675 µM)
Corynebacterium jeikeium
  MIC: 0.25 µg/mL (≈ 0.675 µM)
  MIC50: 0.25 µg/mL (≈ 0.675 µM)
  MIC90: 0.5 µg/mL (≈ 1.35 µM)
Listeria monocytogenes
  MIC: 0.25 µg/mL (≈ 0.675 µM)
  MIC50: 0.25 µg/mL (≈ 0.675 µM)
  MIC90: 0.25 µg/mL (≈ 0.675 µM)
Moraxella catarrhalis
  MIC50: 4 µg/mL (≈ 10.8 µM)
  MIC90: 4 µg/mL (≈ 10.8 µM)
Haemophilus influenzae [17]
  MBC50: >32 µg/mL
  MBC90: >32 µg/mL
Haemophilus influenzae [17]; Haemophilus influenzae
  MBC: > 8 µg/mL
  MIC50: 8 µg/mL (≈ 21.6 µM)
  MIC90: 16 µg/mL (≈ 43.2 µM)
Haemophilus influenzae [18]
  MBC50: >32 µg/mL
  MBC90: >32 µg/mL
Haemophilus influenzae [18]; Haemophilus influenzae
  MBC: > 16 µg/mL
  MIC50: 8 µg/mL (≈ 21.6 µM)
  MIC90: 16 µg/mL (≈ 43.2 µM)
Haemophilus influenzae [19]
  MBC50: >32 µg/mL
  MIC90: >32 µg/mL
Haemophilus influenzae [19]; Haemophilus influenzae
  MBC: > 32 µg/mL
  MIC50: 8 µg/mL (≈ 21.6 µM)
Haemophilus influenzae [19]; Haemophilus influenzae, read-out: MIC90
  MIC90: 32 µg/mL (≈ 86.4 µM)
Haemophilus influenzae [20]
  MBC50: >32 µg/mL
  MBC90: >32 µg/mL
Haemophilus influenzae [20]; Haemophilus influenzae
  MBC: > 8 µg/mL
  MIC50: 8 µg/mL (≈ 21.6 µM)
  MIC90: 16 µg/mL (≈ 43.2 µM)
Streptococcus sp
  MBC50: 1 µg/mL (≈ 2.7 µM)
  MBC90: 16 µg/mL (≈ 43.2 µM)
Streptococcus sp; Streptococcus sp.
  MBC: 0.5 µg/mL (≈ 1.35 µM)
  MIC50: 0.25 µg/mL (≈ 0.675 µM)
  MIC90: 0.25 µg/mL (≈ 0.675 µM)
